Laboratory results reported in patent publication US10501514B2, “Cyclic galanin-analogs and uses thereof” (LanthioPep B.V., priority 2015, dated 2019).
Like-named read-outs stand apart in the source and are kept apart here.

Columns and labels:
GalR1 [1] = biological target: T1, GalR1 (Homo sapiens, UniProt P47211)
T1 sequence (P47211 1-349): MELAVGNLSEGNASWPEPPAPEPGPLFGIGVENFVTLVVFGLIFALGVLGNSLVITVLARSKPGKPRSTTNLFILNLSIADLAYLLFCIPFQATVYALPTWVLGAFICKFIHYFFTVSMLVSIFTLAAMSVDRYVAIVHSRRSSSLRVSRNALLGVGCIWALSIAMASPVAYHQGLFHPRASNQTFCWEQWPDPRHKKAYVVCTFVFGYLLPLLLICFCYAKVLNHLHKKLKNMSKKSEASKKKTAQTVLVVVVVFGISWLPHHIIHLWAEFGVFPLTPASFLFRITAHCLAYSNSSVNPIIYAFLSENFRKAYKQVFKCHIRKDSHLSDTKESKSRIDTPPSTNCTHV
Method: (§1) The biological activity of the (lanthi)galanins was determined in CHO-K1 cell lines that express either the GalR1, or GalR2 receptor. Activity measurements were performed using commercial kits from DiscoverX for determining arrestin recruitment (GalR1, GalR2) and inhibition of cAMP synthesis (GalR1). In addition, HEK293 cell lines that express the GalR2 receptor have been used for methods from Molecular Probes to measure calcium efflux (GalR2).
(§2) ND indicates ‘not determined’.
(§3) Peptide was dissolved in 0.3% ammonia. Peptides were incubated o/n at 37° C. for the introduction of the lanthionine via base assisted sulfur extrusion of the disulfide bridged peptide. […] Different isomers were purified and lyophilized. Dry peptides were dissolved in 100 mM phosphate buffer pH=7.6 and peptides were incubated o/n at 50° C. After HPLC purification peptides with a pE formation were selected and used in the different Galanin receptor activation assays.

GalR1 [2] = biological target: T1, GalR1; test: inhibition of cAMP synthesis in CHO-K1 cells expressing GalR1 (DiscoverX kit); format: cell-based; set-up: host or cells: CHO-K1; settings: Table 2; variants chemically obtained by base-assisted sulfur extrusion; 'no' wraps to 'activity' = no activity
Method: as §1, §2, §3

GalR2 = biological target: T2, GalR2 (Homo sapiens, UniProt O43603); format: cell-based
T2 construct: expressed in transfected cells; host or cells: HEK293
T2 sequence (O43603 1-387): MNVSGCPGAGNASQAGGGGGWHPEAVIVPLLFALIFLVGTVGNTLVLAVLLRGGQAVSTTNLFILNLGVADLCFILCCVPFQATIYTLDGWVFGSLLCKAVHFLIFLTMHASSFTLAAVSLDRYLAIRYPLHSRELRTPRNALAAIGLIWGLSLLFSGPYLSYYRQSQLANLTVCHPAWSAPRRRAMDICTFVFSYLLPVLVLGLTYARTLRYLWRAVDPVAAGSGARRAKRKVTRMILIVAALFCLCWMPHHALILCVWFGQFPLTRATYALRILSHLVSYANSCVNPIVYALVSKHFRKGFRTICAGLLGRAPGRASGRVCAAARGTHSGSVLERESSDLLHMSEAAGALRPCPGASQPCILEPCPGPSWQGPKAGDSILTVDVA
Method: as §2
Peptide was dissolved in 0.3% ammonia. […] Different isomers were purified and lyophilized.

[3] = system: Galanin receptor (GalR1, GalR2); test: Galanin receptor activation assays, overall statements in words; format: cell-based; settings: overall statement on galanin receptor activation
Method: as §1
Peptide was dissolved in 0.3% ammonia. Peptides were incubated o/n at 37° C. for the introduction of the lanthionine via base assisted sulfur extrusion of the disulfide bridged peptide. Different isomers could be isolated by HPLC applying the same method as was used as for the biologically produced peptides. Different isomers were purified and lyophilized. Dry peptides were dissolved in 100 mM phosphate buffer pH=7.6 and peptides were incubated o/n at 50° C. After HPLC purification peptides with a pE formation were selected and used in the different Galanin receptor activation assays.

| Ratio EC50s relative to Gal-(1-15), GalR1 β-Arrestin (GalR1 [1]; Table 2, variants chemically obtained by base-assisted sulfur extrusion, 'no' wraps to 'activity' = no activity) | Ratio EC50s relative to Gal-(1-15), GalR1 cAMP inhibition (GalR1 [2]) | Ratio EC50s relative to Gal-(1-15), GalR2 Ca efflux (GalR2) | Ratio EC50s relative to Gal-(1-15), GalR1 β-Arrestin (GalR1 [1]) | Ratio EC50s relative to Gal-(1-15), GalR2 β-Arrestin (GalR2) | activity, in words [3] | Structure (SMILES) |
| --- | --- | --- | --- | --- | --- | --- |
| no | no | 94 | – | – | – | CC(C)C[C@@H]1NC(=O)[C@H](CC(C)C)NC(=O)[C@H](Cc2ccc(O)cc2)NC(=O)C(NC(=O)[C@H](C)NC(=O)[C@H](C)NC(=O)[C@H](CC(N)=O)NC(=O)[C@H](CC(C)C)NC(=O)[C@@H](NC(=O)[C@H](Cc2c[nH]c3ccccc23)NC(=O)[C@@H]2CCC(=O)N2)[C@@H](C)O)CSCC(C(=O)O)NC1=O (single isomer, unassigned) [4179 A, pEWTLNAAlanYLLlan] |
| – | no | 1.4 | 39 | 2.3 | highly active | CC(C)C[C@H](NC(=O)[C@H](CC(C)C)NC(=O)[C@H](Cc1ccc(O)cc1)NC(=O)CNC(=O)[C@H](C)NC(=O)[C@H](C)NC(=O)[C@H](CC(N)=O)NC(=O)[C@H](CC(C)C)NC(=O)[C@H](CC(N)=O)NC(=O)[C@H](Cc1c[nH]c2ccccc12)NC(=O)[C@@H]1CCC(=O)N1)C(=O)NCC(=O)N1CCC[C@H]1C(=O)NC1CSCC(C(=O)O)NC(=O)[C@H](C(C)C)NC(=O)[C@H](C)NC1=O (single isomer, unassigned) [4178 B] |
| – | no | 11 | >1000 | 137 | – | CC(C)C[C@H](NC(=O)[C@H](CC(C)C)NC(=O)[C@H](Cc1ccc(O)cc1)NC(=O)CNC(=O)[C@H](C)NC(=O)[C@H](C)NC(=O)[C@H](CC(N)=O)NC(=O)[C@H](CC(C)C)NC(=O)[C@H](CC(N)=O)NC(=O)[C@H](Cc1c[nH]c2ccccc12)NC(=O)[C@@H]1CCC(=O)N1)C(=O)NCC(=O)N1CCC[C@H]1C(=O)NC1CSCC(C(=O)O)NC(=O)[C@H](C(C)C)NC(=O)[C@H](C)NC1=O (single isomer, unassigned) [4178 A] |
| – | no | 2.6 | 720 | 3.8 | high activity | CC(C)C[C@@H]1NC(=O)[C@H](CC(C)C)NC(=O)[C@H](Cc2ccc(O)cc2)NC(=O)C(NC(=O)[C@H](C)NC(=O)[C@H](C)NC(=O)[C@H](CC(N)=O)NC(=O)[C@H](CC(C)C)NC(=O)[C@@H](NC(=O)[C@H](Cc2c[nH]c3ccccc23)NC(=O)[C@@H]2CCC(=O)N2)[C@@H](C)O)CSCC(C(=O)O)NC1=O (single isomer, unassigned) [4179 B, pEWTLNAAlanYLLlan] |
